Patent publication US6204266A, “Pharmaceutical, cosmetic and/or food composition having anti-oxidant properties” (Universite Catholique De Louvain Halles Universitaires, priority 1995, dated 2001)

Assays:
[1] = system: Cu-Zn superoxide dismutase; assay: Competition of imidazolopyrazine and superoxide dismutase for superoxide anion (xanthine oxidase/hypoxanthine), luminescence; assay type: biochemical; conditions: for change of slope of the relationship linking IO/I to the superoxide dismutase concentration: when the concentration of the luminescent compound is increased
Excerpt: This method is based on the capacity of imidazolopyrazines to react with the superoxide anion, emitting light.
In these experiments, a constant level of superoxide anion is generated by an enzymatic method, by reacting xanthine oxidase with hypoxanthine in the presence of oxygen.
The maximum light intensity, measured by a luminometer during the competition reaction, is linked to the ratio in [sic] imidazolopyrazine and superoxide dismutase concentrations, as well as to that of the respective rate constants.
Consequently, knowing the rate constant of the reaction of the competing antioxidant with the superoxide anion (K3), the rate constant of the reaction of the imidazolopyrazine with the superoxide anion (K2) may be calculated:
By carrying out this experiment at two imidazolopyrazine concentrations, it is possible to eliminate K1 [O2^2- ] corresponding to the spontaneous disproportionation reaction of O2^2-. The slopes A and B of the straight lines linking IO /I [sic] to the superoxide dismutase concentration are: [formula]
K2 =K3 /([IMPZ]1 -[IMPZ]2)/(1/A)-1/B)
When the imidazolopyrazine concentration is increased, the slope of the relationship linking IO /I [sic] to the superoxide dismutase concentration should decrease.

Human fibroblasts = assay: Protection of human fibroblasts against oxidative stress inducer tert-butyl hydroperoxide (t-BHP); assay type: cell-based
Method: Human fibroblasts were subjected to an oxidative stress inducer (tert-butyl hydroperoxide (t-BHP)) for 6 to 12 hours in the absence and in the presence of increasing doses of coelenterazine and its derivatives.
In the same experimental series, the efficacy of vitamin E (α-tocopherol) (Troxol®), a major antioxidant of animal cells, was compared.

[2] = In vitro toxicity on other mammalian cell types (FIG. 11); assay type: cell-based; conditions: pig (EAP) endothelial cells, read-out: concentration at which a toxic effect can possibly be observed
Method: Similar in vitro toxicity tests were performed on other mammalian (porcine, human, etc.) cell types.
FIG. 11 depicts the percentage survival of different cell types (fibroblasts, human (ECV) or pig (EAP) endothelial cells) as a function of increasing doses of CLZ-9 (molar). A toxic effect of the products can possibly be observed on a certain cell type at high concentrations (10^-4 M in pigs).

human fibroblasts (MRC5) = assay: In vitro toxicity on human fibroblasts (MRC5), total protein content; assay type: cell-based; conditions: concentration of 0.1 mM (10^-4 M), 1% ethanol
Method: Each of the imidazolopyrazine derivatives tested was applied to human fibroblasts (MRC5) in culture. The doses of the compounds ranged from 10^-8 to 10^-4 M. These compounds were applied 48 hours after the cells were inoculated into wells (volume=150 μl; 3000 cells per well).
After a further 24 hour period, the culture medium is renewed, the cells are incubated for 72 hours and their level of survival and of growth is evaluated by measuring the total protein contents in each well (Biorad).

mice [3] = conditions: mouse, in vivo
[4] = Stability in aqueous medium (buffers pH 4, 7, 10; assayed by luminescence in DMSO); assay type: physicochemical; conditions: irrespective of the pH
Method: FIG. 7 depicts the stability of the derivative 10 in an aqueous medium. Three 10^-5 M solutions of CLZN-10 were prepared in citrate (pH 4), phosphate (pH 7) and glycine (pH 10) buffers. Aliquots of these solutions were sampled regularly and the CLZN-10 assayed by luminescence in DMSO.
In comparison with coelenterazine, derivatives comprising additional phenyl groups display better stability.

In vivo toxicity in mice = conditions: mouse, in vivo, ip, 0.02 mg/kg
mice [5] = assay: In vivo toxicity in mice; conditions: 20 μg/kg, 5 intraperitoneal injections
[6] = t-BHP-treated human fibroblasts

SMILES: Cc1nc2c(Cc3ccccc3)[nH]c(-c3ccc(O)cc3)cn-2c1=O [CLZN-9, 3,7-dihydro-2-methyl-6-(p-hydroxyphenyl)-8-benzylimidazo[1,2-a]pyrazyn-3-one]
- increase of KSOD with imidazolopyrazine concentration (effect) [1]: observed
- EC100 (Human fibroblasts; Fibroblast, t-BHP-treated human fibroblasts, read-out: concentration at which protection is total): 1 µM
- minimal effective concentration (Human fibroblasts; Fibroblast, t-BHP-treated human fibroblasts, read-out: concentration from which the improvement of survival is significant): 0.02 µM
- survival of the t-BHP-treated cells (Human fibroblasts; t-BHP 10^-4 M, without serum (FIG. 8)): most advantageous results
- antioxidant activity compared with vitamin E (Human fibroblasts; [6]): greater than
- MCC [2]: 100 µM

SMILES: O=c1c(-c2ccccc2)nc2c(Cc3ccccc3)[nH]c(-c3ccc(O)cc3)cn1-2 [CLZN-10, 3,7-dihydro-2-phenyl-6-(p-hydroxyphenyl)-8-benzylimidazo[1,2-a]pyrazyn-3-one]
- increase of KSOD with imidazolopyrazine concentration (effect) [1]: observed

SMILES: O=c1c(Cc2ccccc2)nc2c(Cc3ccccc3)[nH]c(-c3ccc(O)cc3)cn1-2 [CLZN-11, 3,7-dihydro-2-benzyl-6-(p-hydroxyphenyl)-8-benzylimidazo[1,2-a]pyrazyn-3-one]
- toxicity for human fibroblasts (MRC5) (human fibroblasts (MRC5)): significant toxicity

SMILES: Oc1ccc(Cc2nc3c(Cc4ccccc4)nc(-c4ccc(O)cc4)cn3c2O)cc1 [coelenterazine, 3,7-dihydro-2-(p-hydroxybenzyl)-6-(p-hydroxyphenyl)-8-benzylimidazo[1,2-a]pyrazyn-3-one]
- rate constant KSOD ([1]; coelenterazine concentration 50 nM): 2×10^9
- rate constant KSOD ([1]; coelenterazine concentration 400 nM): 2.5×10^10
- increase in rate constant KSOD ([1]; coelenterazine concentration multiplied by 8 (from 50 to 400 nM)): 12.5 fold
- change of slope of the relationship linking IO/I to the superoxide dismutase concentration [1]: a rise in the slope
- antioxidant activity compared with vitamin E (Human fibroblasts; [6]): equivalent to
- Weight (in grams) after 0 day (mice [3]): 16.19 grams
- Weight (in grams) after 6 days (mice [3]): 22.82 grams
- Weight (in grams) after 30 days (mice [3]): 31.57 grams
- survival (mice [3]): 5/5
- growth retardation (mice [3]; ip): no growth retardation is observed
- stability in an aqueous medium [4]: only a few hours
- survival (In vivo toxicity in mice): 100%
- toxicity for mice (mice [5]): not toxic

SMILES: Nc1cccc2c(=O)[nH][nH]c(=O)c12 [luminol, reference compound]
- change of slope of the relationship linking IO/I to the superoxide dismutase concentration [1]: a regular decrease in the slope

SMILES: Cc1c(C)c2c(c(C)c1O)CC[C@@](C)(CCC[C@H](C)CCC[C@H](C)CCCC(C)C)O2 [vitamin E, α-tocopherol, reference compound]
- protection (Human fibroblasts; serum (10%) in the culture medium, highest concentrations): 60%
